Structures can show the parent of a compound that is named as a salt. Blank lines part the entries; values can stand above or below the compound they belong to.
What was measured:
[1] = known crystalline form, Funke et al.; cited from earlier work
[2] = Particle size distribution by laser diffraction (LDS method); assay type: physicochemical; conditions: for D95 of crystallization sample: LDS; for D95 of micronization sample: after micronization, Chrispro MC200 jet mill, nitrogen, 7 bar
Procedure: LDS method. A dispersion liquid has been made consisting of (0.7 mg/ml) lecithin (used as a surfactant) in iso-octane saturated with asenapine maleate. The solution is stirred overnight. Subsequently the solution is filtered over a 0.22 μm filter. The samples were prepared by weighing approximately 30 mg asenapine maleate in a centrifugal tube and adding 2 ml of the dispersion liquid. Ultrasonic treatment of the samples was performed for 2 minutes in an ultrasonic bath (Transsonic 310). Subsequently, the particle size distribution of the sample was analyzed using laser diffraction (Malvern Mastersizer S, UK). The particle size distribution has been calculated using the Fraunhofer algorithm.

[3] = Particle size observed in micrographs / microscopic picture; assay type: physicochemical; conditions: non-micronized crystallized batch
[4] = Micronization in jet mill, polymorphic form of the product by XRPD; assay type: physicochemical; conditions: polymorphic form after micronization at 7 bar
Procedure: X-ray powder diffraction (XRPD) spectra were obtained on an […] Panalytical Reflection diffractometer in a Bragg-Brantano setup, Cu-Kα radiation, settings 45 kV and 40 mA together with an X'celerator detector. The slits used: anti-scatter slit 1°, divergence slit 1⁄2°, soller slits 0.02 rad. Measuring conditions: scan range 5-40°2-[…] (θ), step size 0.0167°2-[…]. The samples were measured on a rotating sample disk of Si with a speed of 15 rpm.

D95 of micronization sample ([2]; listed as M1): <12 μm
polymorph of micronization sample ([4]; listed as M1): >95% orthorhombic
Structure (SMILES): CN1CC2c3ccccc3Oc3ccc(Cl)cc3C2C1 (centres unmarked) [batch M1, asenapine maleate]

D95 of micronization sample ([2]; listed as M2): <14 μm
polymorph of micronization sample ([4]; listed as M2): >95% monoclinic
Structure (SMILES): CN1CC2c3ccccc3Oc3ccc(Cl)cc3C2C1 (centres unmarked) [batch M2, asenapine maleate]

D95 of micronization sample ([2]; listed as M3): <16 μm
polymorph of micronization sample ([4]; listed as M3): 80% orthorhombic, 20%
Structure (SMILES): CN1CC2c3ccccc3Oc3ccc(Cl)cc3C2C1 (centres unmarked) [batch M3, asenapine maleate]

D95 of micronization sample ([2]; listed as M4): <9 μm
polymorph of micronization sample ([4]; listed as M4): >95% orthorhombic
Structure (SMILES): CN1CC2c3ccccc3Oc3ccc(Cl)cc3C2C1 (centres unmarked) [batch M4, asenapine maleate]

D95 of micronization sample ([2]; listed as M5): <6 μm
polymorph of micronization sample ([4]; listed as M5): >95% orthorhombic
Structure (SMILES): CN1CC2c3ccccc3Oc3ccc(Cl)cc3C2C1 (centres unmarked) [batch M5, asenapine maleate]

D95 of micronization sample ([2]; listed as M6): <10 μm
polymorph of micronization sample ([4]; listed as M6): >95% orthorhombic
Structure (SMILES): CN1CC2c3ccccc3Oc3ccc(Cl)cc3C2C1 (centres unmarked) [batch M6, asenapine maleate]

D95 of micronization sample ([2]; listed as M7): <12 μm
polymorph of micronization sample ([4]; listed as M7): >95% orthorhombic
Structure (SMILES): CN1CC2c3ccccc3Oc3ccc(Cl)cc3C2C1 (centres unmarked) [batch M7, asenapine maleate]

Further lines, the compound ahead of its results:

Structure (SMILES): CN1CC2c3ccccc3Oc3ccc(Cl)cc3C2C1.O=C(O)/C=C\C(=O)O (centres unmarked) [asenapine maleate]
size of crystalline particles as observed in micrographs [1]: over 100 μm

Structure (SMILES): CN1CC2c3ccccc3Oc3ccc(Cl)cc3C2C1 (centres unmarked) [batch C1, asenapine maleate]
D95 of crystallization sample ([2]; non-micronized crystallized batch, listed as C1): 199 μm

Structure (SMILES): CN1CC2c3ccccc3Oc3ccc(Cl)cc3C2C1 (centres unmarked) [batch C2, asenapine maleate]
D95 of crystallization sample ([2]; non-micronized crystallized batch, listed as C2): 221 μm

Structure (SMILES): CN1CC2c3ccccc3Oc3ccc(Cl)cc3C2C1 (centres unmarked) [batch C5, asenapine maleate]
average particle size by LDS ([2]; non-micronized crystallized batch): ~30 μm
D95 of crystallization sample ([2]; non-micronized crystallized batch, listed as C5): 30-100 μm
particle size in microscopic picture [3]: up to 100 μm
